Results on three molecules are retold here after ChEMBL document CHEMBL4261613, “Discovery of a potent orally bioavailable retinoic acid receptor-related orphan receptor-gamma-t (RORγt) inhibitor, S18-000003” (Bioorg Med Chem Lett, 2018).

Converted amounts (≈) assume the structure as drawn.

Data set [1] can be described thus: Half life in rat at 0.5 mg/kg, iv. To be noted: in vivo. The data set is classed as ADME, organism-based.
Data set [2] is described as follows: AUC in rat at 0.5 mg/kg, iv. The data set is classed as ADME, organism-based. To be noted: in vivo.
Data set [3] is described as follows: Solubility of the compound in NaCl/HCl buffer at pH 1.2 by shake-flask method. The data set is classed as physicochemical.
A short description of data set [4]: Cmax in rat at 1 mg/kg, po. The data set is classed as ADME, organism-based. Details: dose 1 mg/kg, route oral. Particulars: in vivo.
Data set [5] deals with T1, Nuclear receptor ROR-gamma (Mus musculus, UniProt P51450).
T1 sequence (P51450 whole entry): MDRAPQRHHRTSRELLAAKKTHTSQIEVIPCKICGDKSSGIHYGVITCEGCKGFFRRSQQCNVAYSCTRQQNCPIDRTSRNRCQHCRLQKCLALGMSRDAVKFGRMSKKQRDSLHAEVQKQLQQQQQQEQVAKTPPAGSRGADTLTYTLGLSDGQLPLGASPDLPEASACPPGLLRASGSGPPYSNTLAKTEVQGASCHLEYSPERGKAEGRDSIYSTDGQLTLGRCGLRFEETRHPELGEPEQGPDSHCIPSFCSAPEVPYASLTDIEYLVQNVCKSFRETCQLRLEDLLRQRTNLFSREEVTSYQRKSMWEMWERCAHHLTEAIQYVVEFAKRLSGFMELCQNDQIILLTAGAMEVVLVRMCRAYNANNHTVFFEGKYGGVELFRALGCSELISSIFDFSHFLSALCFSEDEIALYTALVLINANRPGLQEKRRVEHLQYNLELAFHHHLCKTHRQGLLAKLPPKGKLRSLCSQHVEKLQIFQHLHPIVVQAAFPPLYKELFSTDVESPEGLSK
Put plainly: Transrepression of RORgammat in anti-CD3/CD28 stimulated C57BL/6 mouse CD4-positive T cells assessed as suppression of T cell differentiation to Th17 cells by measuring reduction in IL-17A level after 4 days by ELISA.

Data set [6] has as its target T2, Nuclear receptor ROR-gamma (Mus musculus) (UniProt P51450).
T2 sequence (whole entry): T1 sequence (P51450 whole entry)
Put plainly: (§1) Transrepression of recombinant mouse GAL4-DBD fused RORgammat LBD expressed in HEK293 cells after 20 hrs by luciferase reporter gene assay. The data set is classed as cell-based. (Reporter assays use an easily measured gene product as a stand-in for the process of interest.)

The target in data set [7] is T1, Nuclear receptor ROR-gamma. The description is as §1. The data set is classed as cell-based.
For data set [8], the target named is T3, Oxysterols receptor LXR-alpha (Homo sapiens, UniProt Q13133).
T3 sequence (Q13133 whole entry): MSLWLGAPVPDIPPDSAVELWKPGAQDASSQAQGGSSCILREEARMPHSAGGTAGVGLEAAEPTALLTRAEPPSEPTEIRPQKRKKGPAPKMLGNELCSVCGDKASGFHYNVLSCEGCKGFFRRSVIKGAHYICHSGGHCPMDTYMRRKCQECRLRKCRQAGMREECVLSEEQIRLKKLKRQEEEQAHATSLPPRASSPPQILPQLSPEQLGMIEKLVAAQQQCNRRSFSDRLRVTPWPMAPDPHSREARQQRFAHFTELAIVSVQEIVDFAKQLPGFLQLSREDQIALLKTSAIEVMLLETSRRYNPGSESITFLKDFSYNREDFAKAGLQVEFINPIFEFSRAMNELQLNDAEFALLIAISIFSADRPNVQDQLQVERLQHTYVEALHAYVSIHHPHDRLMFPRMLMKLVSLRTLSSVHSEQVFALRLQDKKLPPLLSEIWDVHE
Briefly: Transrepression of recombinant human GAL4-DBD fused LXRalpha LBD expressed in HEK293 cells after 20 hrs by luciferase reporter gene assay. The data set is classed as cell-based.

For data set [9], the target named is T4, Nuclear receptor ROR-gamma (Homo sapiens) (UniProt P51449).
T4 sequence (whole entry): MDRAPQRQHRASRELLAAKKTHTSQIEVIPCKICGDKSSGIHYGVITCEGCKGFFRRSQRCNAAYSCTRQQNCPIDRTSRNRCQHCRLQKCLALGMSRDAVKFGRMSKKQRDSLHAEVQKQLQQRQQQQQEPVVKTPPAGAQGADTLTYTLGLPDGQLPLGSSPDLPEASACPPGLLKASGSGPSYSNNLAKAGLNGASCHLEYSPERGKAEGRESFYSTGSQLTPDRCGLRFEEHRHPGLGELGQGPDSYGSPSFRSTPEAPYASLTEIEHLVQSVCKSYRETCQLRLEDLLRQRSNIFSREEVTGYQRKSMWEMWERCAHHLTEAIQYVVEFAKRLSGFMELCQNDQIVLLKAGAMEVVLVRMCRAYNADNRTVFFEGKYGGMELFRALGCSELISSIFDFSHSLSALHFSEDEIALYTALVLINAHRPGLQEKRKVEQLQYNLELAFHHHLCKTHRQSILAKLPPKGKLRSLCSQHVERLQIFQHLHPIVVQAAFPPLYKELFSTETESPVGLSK
Briefly: (§2) Transrepression of recombinant human GAL4-DBD fused RORgammat LBD expressed in HEK293 cells after 20 hrs by luciferase reporter gene assay. The data set is classed as cell-based.

For data set [10], the target named is T5, Nuclear receptor ROR-gamma (Homo sapiens, UniProt P51449).
T5 sequence (P51449 whole entry): T4 sequence (whole entry)
The data set is described as §2. The data set is classed as cell-based.

The nature of data set [11]: Total clearance in rat at 0.5 mg/kg, iv. The data set is classed as ADME, organism-based. To be noted: in vivo.
Data set [12] in a line: AUC in rat at 1 mg/kg, po. The data set is classed as ADME, organism-based. Particulars: in vivo.
Data set [13] can be described thus: Stability in rat liver microsomes assessed as parent compound remaining after 2 hrs by LC-MS/MS analysis. To be noted: read-out: Stability. The data set is classed as ADME, microsome.
Data set [14] concerns the target T5, Nuclear receptor ROR-gamma. Briefly: Displacement of [3H]-Digoxin from recombinant human GST-fused RORgammat LBD after 1 to 4 hrs by scintillation counting method. On the technique in general: Displacement assays read how much labelled ligand stays bound in the presence of the test substance.
The nature of data set [15]: Fraction unbound in rat plasma at 1 mg/kg, po. The data set is classed as ADME, organism-based.
A short description of data set [16]: Volume of distribution at steady state in rat at 0.5 mg/kg, iv. The data set is classed as ADME, organism-based. To be noted: in vivo, read-out: Vdss.
The nature of data set [17]: Stability in human liver microsomes assessed as parent compound remaining after 2 hrs by LC-MS/MS analysis. To be noted: read-out: Stability. The data set is classed as ADME, microsome. (In general: Microsomes from liver hold many membrane-bound enzymes, among them those of drug oxidation.)
Data set [18] in a line: Oral bioavailability in rat at 1 mg/kg. Particulars: in vivo. The data set is classed as ADME, organism-based.
A short description of data set [19]: Solubility of the compound in KH2PO4/Na2HPO4 buffer at pH 6.8 by shake-flask method. The data set is classed as physicochemical.
The target of data set [20] is T6, Oxysterols receptor LXR-beta (Homo sapiens, UniProt P55055).
T6 sequence (P55055 whole entry): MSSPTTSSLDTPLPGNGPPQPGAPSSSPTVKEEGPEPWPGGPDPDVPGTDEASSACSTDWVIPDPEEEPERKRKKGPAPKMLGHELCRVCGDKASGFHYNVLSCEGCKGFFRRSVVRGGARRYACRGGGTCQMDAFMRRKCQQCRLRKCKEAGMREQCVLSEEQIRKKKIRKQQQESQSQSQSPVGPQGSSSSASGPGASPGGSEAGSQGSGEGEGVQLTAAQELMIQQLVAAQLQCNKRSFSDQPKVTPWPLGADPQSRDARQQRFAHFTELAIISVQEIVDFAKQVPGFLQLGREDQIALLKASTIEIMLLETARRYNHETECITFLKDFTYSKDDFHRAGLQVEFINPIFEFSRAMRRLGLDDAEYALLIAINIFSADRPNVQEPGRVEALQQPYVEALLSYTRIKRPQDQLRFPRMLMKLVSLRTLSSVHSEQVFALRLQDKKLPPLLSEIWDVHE
Put plainly: Transrepression of recombinant human GAL4-DBD fused LXRbeta LBD expressed in HEK293 cells after 20 hrs by luciferase reporter gene assay. The data set is classed as cell-based.

A word on the half-life: it is the time in which the quantity being followed falls by half. The term AUC denotes concentration integrated over time. A low value points to low exposure. The term thermodynamic solubility denotes the concentration in solution at equilibrium with solid. Broadly, the Cmax is the highest concentration seen after dosing. One may read the IC50 as the midpoint of a concentration-inhibition curve. As usually defined, the EC50 is the concentration that produces a half-maximal response. Usually clearance stands for the volume of plasma or blood freed of the substance per unit of time. A lower clearance goes with inefficient removal. Usually fraction unbound stands for free concentration divided by total concentration. Read a low fraction unbound as extensive binding. Usually bioavailability stands for the share of a dose that reaches the circulation, judged against a reference dose that is usually intravenous. In turn, `CCS(=O)(=O)c1ccc(CC(=O)Nc2ccc(C(C)(C)C(=O)Nc3cc(C#N)ccn3)c(F)c2)cc1` gave a half-life in [1] of 2.9 h. For the same molecule, the values for the AUC in [2] and in [12] were 556 ng·h/mL and 218 ng·h/mL, respectively. Moreover, the figures for the thermodynamic solubility in [3] and in [19] were 30 µM (≈ 15.3 µg/mL) and 9 µM (≈ 4.58 µg/mL), respectively. In data set [4], the peak level (Cmax) was 33.3 ng/mL. Also, the IC50 in data set [5] was 68 nM; in data set [7], 74 nM; in data set [10], 16 nM; in data set [14], below 30 nM. In addition, the Efficacy in data set [6] amounted to 88%; in data set [9], 95%. Also, the EC50 in data set [8] and in data set [20] was above 30000 nM each time. For the same molecule, in data set [11], the clearance amounted to 15 mL/min/kg. The remaining at 2 h in [13] was determined as 71%; in data set [17] it was 82%. In [15], this molecule gave a fraction unbound of 0.051. Moreover, the Vd in [16] was determined as 3.3 L/kg. The molecule further had a bioavailability in [18] of 19.6%.

The molecule `CCS(=O)(=O)c1ccc(CC(=O)Nc2ccc(C(C)(C)C(=O)Nc3ccc(F)cc3)c(F)c2)cc1` gave a half-life in [1] of 2.5 h. Besides, the values for the exposure (AUC) in data set [2] and in data set [12] were 986 ng·h/mL and 786 ng·h/mL, respectively. Besides, the thermodynamic solubility in data set [3] came to 26 µM (≈ 13 µg/mL); in [19] it was 16 µM (≈ 8.01 µg/mL). The molecule also showed a peak concentration (Cmax) in data set [4] of 85.3 ng/mL. Besides, the half-inhibitory concentration (IC50) is 420 nM in [5], 250 nM in data set [7], 25 nM in data set [10] and below 30 nM in data set [14]. The Efficacy turned out to be 85% in [6] and 95% in data set [9]. The EC50 in data set [8] and in data set [20] was above 30000 nM in each case. This molecule displayed a clearance in data set [11] of 8.45 mL/min/kg. Also, the remaining at 2 h in data set [13] was 77%; in [17], 63%. In data set [15], this molecule returned a free fraction (fraction unbound) of 0.036. In addition, the Vd in [16] was 1.7 L/kg. The same molecule gave a bioavailability in [18] of 39.9%.

Turning to `CCS(=O)(=O)c1ccc(CC(=O)Nc2ccc(C(C)(C)C(=O)Nc3ccc(F)cc3F)c(F)c2)cc1`, the half-life in data set [1] is 3.2 h. The values for the AUC in data set [2] and in data set [12] were 1930 ng·h/mL and 2110 ng·h/mL, respectively. Besides, the solubility (thermodynamic) in data set [3] was found to be 29 µM (≈ 15 µg/mL); in data set [19] it was 25 µM (≈ 13 µg/mL). In data set [4], this molecule gave a Cmax of 185 ng/mL. Further, the IC50 in [5] is 200 nM; in data set [7], 340 nM; in [10], 29 nM; in data set [14] it was below 30 nM. In addition, the Efficacy in data set [6] was found to be 85%; in [9] it was 100%. The concentration giving a half-maximal response (EC50) in data set [8] and in data set [20] was above 30000 nM throughout. The clearance in data set [11] is 4.33 mL/min/kg. The remaining at 2 h in data set [13] is 89%; in data set [17], 95%. In addition, the unbound share (fraction unbound) in [15] was found to be 0.034. The Vd in [16] amounted to 1.1 L/kg. Also, the bioavailability in data set [18] is 54.5%.
